Entries after “also recorded” stand apart in the source; their conditions may differ.
Columns and labels:
[1] = test system: E. faecalis; experiment: Kill or inhibit growth/proliferation; morphology, biofilm and growth disruption (Tables 5, 6); type: cell-based, Enterococcus faecalis; design: key: A: Peptide aggregates; B: Less hyphal formation; Clumps; Diffuse clumps and small polyps; F: Diffuse growth; H: Thin; I: Growth inhibition; Microcolony formation; Rippled; Small polyps; Thick; W: Halo formation on top, microlonies on bottom; note: test concentration or dose not given here
[2] = test system: MRSA; experiment: as above; type: cell-based, Methicillin-resistant Staphylococcus aureus; design: key: A: Peptide aggregates; B: Less hyphal formation; Clumps; Diffuse clumps and small polyps; F: Diffuse growth; H: Thin; I: Growth inhibition; Microcolony formation; Rippled; Small polyps; Thick; W: Halo formation on top, microlonies on bottom; note: test concentration or dose not given here
[3] = test system: S. epidermidis; experiment: as above; type: cell-based, Staphylococcus epidermidis; design: key: A: Peptide aggregates; B: Less hyphal formation; Clumps; Diffuse clumps and small polyps; F: Diffuse growth; H: Thin; I: Growth inhibition; Microcolony formation; Rippled; Small polyps; Thick; W: Halo formation on top, microlonies on bottom; note: test concentration or dose not given here
[4] = test system: S. pneumoniae; experiment: as above; type: cell-based, Streptococcus pneumoniae; design: key: A: Peptide aggregates; B: Less hyphal formation; Clumps; Diffuse clumps and small polyps; F: Diffuse growth; H: Thin; I: Growth inhibition; Microcolony formation; Rippled; Small polyps; Thick; W: Halo formation on top, microlonies on bottom; note: test concentration or dose not given here
[5] = test system: C. jejuni; experiment: as above; type: cell-based, Campylobacter jejuni; design: key: A: Peptide aggregates; B: Less hyphal formation; Clumps; Diffuse clumps and small polyps; F: Diffuse growth; H: Thin; I: Growth inhibition; Microcolony formation; Rippled; Small polyps; Thick; W: Halo formation on top, microlonies on bottom; note: test concentration or dose not given here
[6] = test system: E. coli; experiment: as above; type: cell-based, Escherichia coli; design: key: A: Peptide aggregates; B: Less hyphal formation; Clumps; Diffuse clumps and small polyps; F: Diffuse growth; H: Thin; I: Growth inhibition; Microcolony formation; Rippled; Small polyps; Thick; W: Halo formation on top, microlonies on bottom; note: test concentration or dose not given here
[7] = test system: P. aeruginosa; experiment: as above; type: cell-based, Pseudomonas aeruginosa; design: key: A: Peptide aggregates; B: Less hyphal formation; Clumps; Diffuse clumps and small polyps; F: Diffuse growth; H: Thin; I: Growth inhibition; Microcolony formation; Rippled; Small polyps; Thick; W: Halo formation on top, microlonies on bottom; note: test concentration or dose not given here
[8] = test system: microorganisms; experiment: Peptides having multiple activities (targeting/binding, antimicrobial, growth or phenotype altering)
From the text: In certain embodiments, peptides described herein can have multiple activities. Thus for example, a peptide can have both binding/targeting activity and antimicrobial activity. Such peptides can be used, e.g., in a chimeric construct, for any or all of these properties. Thus, for example, a peptide designated “B” in Table 8 can be used as a targeting peptide. If it is also designated G or M it can also be used for antimicrobial activity.

[9] = test system: C. jeikeium; experiment: Kill or inhibit growth/proliferation; morphology, biofilm and growth disruption (Tables 5, 6); type: cell-based, Corynebacterium jeikeium; design: key: A: Peptide aggregates; B: Less hyphal formation; Clumps; Diffuse clumps and small polyps; F: Diffuse growth; H: Thin; I: Growth inhibition; Microcolony formation; Rippled; Small polyps; Thick; W: Halo formation on top, microlonies on bottom; note: test concentration or dose not given here
[10] = test system: microorganisms (e.g., bacteria, yeasts, fungi); experiment: Targeting peptide binding to target microorganisms (Table 3); details: microorganism(s) the targeting peptide binds, preferably 1x PBS
[11] = test system: B. subtilis; experiment: Kill or inhibit growth/proliferation; morphology, biofilm and growth disruption (Tables 5, 6); type: cell-based, Bacillus subtilis; design: key: A: Peptide aggregates; B: Less hyphal formation; Clumps; Diffuse clumps and small polyps; F: Diffuse growth; H: Thin; I: Growth inhibition; Microcolony formation; Rippled; Small polyps; Thick; W: Halo formation on top, microlonies on bottom; note: test concentration or dose not given here
[12] = test system: M. luteus; experiment: as above; type: cell-based, Micrococcus luteus; design: key: A: Peptide aggregates; B: Less hyphal formation; Clumps; Diffuse clumps and small polyps; F: Diffuse growth; H: Thin; I: Growth inhibition; Microcolony formation; Rippled; Small polyps; Thick; W: Halo formation on top, microlonies on bottom; note: test concentration or dose not given here
[13] = binding in aqueous buffers depending on peptide solubility

Substance	Organism, effect [1]	Organism, effect [2]	Organism, effect [3]	Organism, effect [4]	Organism, effect [5]	Organism, effect [6]	Organism, effect [7]	Activities [8]	Organism, effect [9]	Target(s) ([10]; peptide binding conducted in aqueous buffers varied by peptide solubility)	Organism, effect [11]	Organism, effect [12]	Target(s) [10, 13]
ALCSVIKAIELGIINVHLQ [PF-366]	E. faecalis (C)	MRSA (D)	S. epidermidis (R)	S. pneumoniae (C)	C. jejuni (D)	E. coli (C)	P. aeruginosa (A)	G B					
LNFRAENKILEKIHISLIDTVEGSA [PF-575]				S. pneumoniae (A)	C. jejuni (R)		P. aeruginosa (A)	G B	C. jeikeium (A)	M. luteus and E. coli and C. albicans and MRSA and S. pneumoniae and E. faecalis and C. jeikeium			
PF-063: peptide having multiple activities (chain 1 IAAIIVLVLFQKGLLQIFNWILIQLQ; chain 2 IAAIIVLVLFQKGLLQIFNWILIQLQ; Peptide with targeting and/or antimicrobial activity)		MRSA (M)	S. epidermidis (R)	S. pneumoniae (D)	C. jejuni (D)		P. aeruginosa (A)	G B	C. jeikeium (D)		B. subtilis (C)	M. luteus (R)	
PF-128: peptide having multiple activities (GIKVVAARFEEIQFSENFDSIILA; Peptide with targeting and/or antimicrobial activity)			S. epidermidis (D)				P. aeruginosa (C)	G B					M. luteus; also recorded: P. aeruginosa; also recorded: E. faecalis
PF-204: peptide having multiple activities (ALQKQDMNLPSVKNQLVFLKSTG; Peptide with targeting and/or antimicrobial activity)			S. epidermidis (C)				P. aeruginosa (H)	G B	C. jeikeium (D)			M. luteus (C)	S. epidermidis; also recorded: P. mirabilis; also recorded: E. coli; also recorded: P. aeruginosa; also recorded: C. albicans; also recorded: C. jejuni
PF-355: peptide having multiple activities (chain 1 WIAIGLLLYFSLKNQ; chain 2 WIAIGLLLYFSLKNQ; Peptide with targeting and/or antimicrobial activity)	E. faecalis (D)	MRSA (A)	S. epidermidis (C)	S. pneumoniae (D)	C. jejuni (D)	E. coli (C)	P. aeruginosa (A)	G B					
PF-356: peptide having multiple activities (chain 1 VSIKIGAIVIGMIGLMELLTE; chain 2 VSIKIGAIVIGMIGLMELLTE; Peptide with targeting and/or antimicrobial activity)	E. faecalis (R)	MRSA (C)	S. epidermidis (S)	S. pneumoniae (R)	C. jejuni (D)		P. aeruginosa (A)	G B					
PF-380: peptide having multiple activities (chain 1 KKIIPLITLFVVTLVG; chain 2 KKIIPLITLFVVTLVG; Peptide with targeting and/or antimicrobial activity)	E. faecalis (C)	MRSA (D)	S. epidermidis (C)	S. pneumoniae (D)	C. jejuni (D)	E. coli (C)	P. aeruginosa (A)	G B					
PF-411: peptide having multiple activities (WVAVAILLNIALQTQLT; Peptide with targeting and/or antimicrobial activity)	E. faecalis (D)	MRSA (D)	S. epidermidis (C)	S. pneumoniae (D)	C. jejuni (D)	E. coli (C)	P. aeruginosa (A)	G B					
PF-432: peptide having multiple activities (FNGDSEFFLCIAF; Peptide with targeting and/or antimicrobial activity)	E. faecalis (D)	MRSA (M)	S. epidermidis (M)	S. pneumoniae (D)	C. jejuni (D)	E. coli (R)	P. aeruginosa (A)	G B					
PF-454: peptide having multiple activities (chain 1 MSVFVPVTNIFMFIMSPIFNVNLLHFKVYI; chain 2 MSVFVPVTNIFMFIMSPIFNVNLLHFKVYI; Peptide with targeting and/or antimicrobial activity)	E. faecalis (C)	MRSA (C)	S. epidermidis (C)	S. pneumoniae (R)		E. coli (R)	P. aeruginosa (H)	G B					
PF-458: peptide having multiple activities (chain 1 ISLIIFIMLFVVALFKCITNYKHQS; chain 2 ISLIIFIMLFVVALFKCITNYKHQS; Peptide with targeting and/or antimicrobial activity)		MRSA (M)		S. pneumoniae (M)			P. aeruginosa (H)	G B					
PF-535 (NIKTRKRALKIIKQHQRSK; Peptide with targeting and/or antimicrobial activity)				S. pneumoniae (H)			P. aeruginosa (H)						
PF-536 (MEPIPHIMIIANQIGIIIEKA; Peptide with targeting and/or antimicrobial activity)	E. faecalis (C)	MRSA (C)	S. epidermidis (C)	S. pneumoniae (M)		E. coli (R)	P. aeruginosa (H)						
PF-577: peptide having multiple activities (chain 1 PFETRESFRVPVIGILGGWDYFMHP; chain 2 PFETRESFRVPVIGILGGWDYFMHP; Peptide with targeting and/or antimicrobial activity)	E. faecalis (A)	MRSA (M)	S. epidermidis (A)	S. pneumoniae (R)	C. jejuni (R)	E. coli (A)	P. aeruginosa (A)	G B					
